Assay results as given in patent US8809373B2, “Pyridine non-classical cannabinoid compounds and related methods of use” (priority 2008, dated 2014).

Tests used:
[1] = system: glioblastoma brain cancer cell line LN-229; test: Cytotoxicity assay (CCK8 viability), LN-229; assay type: cell-based; conditions: Homo sapiens, LN-229 cells, 18 hours drug incubation, 1% FBS media
Method: (§1) Cytoxocity assay: Cells were seeded on a 96 well polystyrene plate in full serum media at a density of 75,000 cells per milliliter, 100 μL per well. Plates were incubated at 37° C. and 5% CO2 for 24 hours to allow cell attachment. Drug solutions were prepared in DMSO at 100× concentration and mixed 1:100 in 1% FBS media to yield the desired concentration. Drug-media mixtures were vortexed immediately prior to administration to cells. Full serum media was removed and replaced with drug-media mixtures and incubated for 18 hours. 10 μL of Cell Counting Kit 8 (CCK8, Dojindo# CK04-11) was added to each well to colormetrically assess viability. After 2-4 hours of incubation with the CCK8 dye, absorbance was read at 450 nm by a BioTek Synergy 2 plate reader.
(§2) The cytotoxicity of selected compounds against the glioblastoma brain cancer cell line LN-229 is depicted in Table 1.

[2] = system: glioblastoma brain cancer cell line DBTRG05MG; test: Cytotoxicity assay (CCK8 viability), DBTRG05MG; assay type: cell-based; conditions: Homo sapiens, DBTRG-05MG, DBTRG05MG cells, 18 hours drug incubation, 1% FBS media
Method: as §1, §2

Compound	EC50 [1] [µM]	EC50 [2] [µM]
Cc1cccc(-c2c(O)cc(C(C)(C)C3CCCCC3)nc2O)c1 [Compound 8f, 6-(2-Cyclohexylpropan-2-yl)-3-m-tolylpyridine-2,4-diol]	71.1	–
CCCCCCC(C)(C)c1cc(O)c(Cc2ccccc2)c(O)n1 [Compound 8n, 3-Benzyl-6-(2-methyloctan-2-yl)pyridine-2,4-diol]	13.1	25.2
CCCCCCC(C)(C)c1cc(O)c(-c2ccccc2)c(O)n1 [Compound 8j, 6-(2-Methyloctan-2-yl)-3-phenylpyridine-2,4-diol]	52.6	55.7
CC(C)(c1cc(O)c(-c2cc(Cl)cc(Cl)c2)c(O)n1)C1CCCCC1 [Compound 8b, 6-(2-Cyclohexylpropan-2-yl)-3-(3,5-dichlorophenyl)pyridine-2,4-diol]	5.9	9.8
CCCCCCC(C)(C)c1nc(O)c(-c2cccc(C)c2)c(O)n1 [Compound 8h, 2-(2-Methyloctan-2-yl)-5-m-tolylpyrimidine-4,6-diol]	24.6	29.2
CC(C)(c1ccccc1)c1cc(O)c(-c2cc(Cl)cc(Cl)c2)c(O)n1 [Compound 8c, 3-(3,5-Dichlorophenyl)-6-(2-phenylpropan-2-yl)pyridine-2,4-diol]	29.2	33.6
CCCCCCC(C)(C)c1cc(O)c(-c2cccc(OC)c2)c(O)n1 [Compound 8m, 3-(3-Methoxyphenyl)-6-(2-methyloctan-2-yl)pyridine-2,4-diol]	41.7	56
CCCCCCC(C)(C)c1cc(O)c(-c2cc(Cl)cc(Cl)c2)c(O)n1 [Compound 8e, 3-(3,5-dichlorophenyl)-6-(2-methyloctan-2-yl)pyridine-2,4-diol]	1.6	4.1
